Test results reported in PubChem BioAssay AID2020 (NMMLSC, 2009).
The source made the active and inactive calls.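 How the source made its calls: active means EC50 at or below 30 µM together with a response span of at least a set limit; inactive means the rest.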

Molecular target: Cell division control protein 42 homolog (Homo sapiens) (UniProt P60953)
Assay: activated Cdc42 mutant GTP binding inhibitors, SAR follow-up, biochemical, pyrazoline analogs, multiplex bead flow cytometry, Ki (AID 2020)
Details: bead-based flow cytometry, Bodipy-FL-GTP binding

Sequence of Cell division control protein 42 homolog (Homo sapiens) (P60953 whole entry, looked up, change not shown): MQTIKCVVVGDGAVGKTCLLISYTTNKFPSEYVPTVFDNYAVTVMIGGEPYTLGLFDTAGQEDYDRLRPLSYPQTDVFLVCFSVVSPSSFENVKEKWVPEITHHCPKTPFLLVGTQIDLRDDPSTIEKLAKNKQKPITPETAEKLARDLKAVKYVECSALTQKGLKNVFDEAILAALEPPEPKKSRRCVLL

| EC50 | SMILES |
| --- | --- |
| > 30 µM (inactive) | Cc1onc(-c2ccccc2)c1-c1ccc(S(N)(=O)=O)cc1 |
| > 30 µM (inactive) | COc1ccc(C2CC(c3ccccc3)=NN2c2ccc(C(=O)O)cc2)cc1 (stereo not given) |
| > 30 µM (inactive) | COc1ccc(C2=NN(c3ccccc3)C(c3ccc(Cl)cc3)C2)cc1 (stereo not given) |
| > 30 µM (inactive) | Clc1cccc(N2N=C(c3ccccc3)CC2c2ccccc2)c1 (stereo not given) |
| > 30 µM (inactive) | COc1ccccc1C1CC(c2ccccc2)=NN1c1ccc(S(N)(=O)=O)cc1 (stereo not given) |
